Experimental data: PubChem BioAssay AID256 (DTP/NCI, 2004)
Values joined by “and” are separate entries in the source; they are usually repeats but may differ in a detail not shown here. Equal values may be shown once. Toxic doses and inconclusive results are not listed. How the source made its calls: active means survival T/C of 150% or more; inactive means T/C below 125% in these data.

System: CD2F1 mice, L1210 leukemia ip, survival T/C
Assay: NCI In Vivo Anticancer Drug Screen. Data for tumor model L1210 Leukemia (intraperitoneal) in CD2F1 (CDF1) mice
Details: higher = longer survival
Outline: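 Implant tumor; dose compound or vehicle; measure endpoint in both groups; report treated divided by control.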

[1] = endpoint: mean survival time, dose: 100.0 mg/kg/injection, schedule: Q04DX003 (ip), vehicle: saline with Tween-80
[2] = endpoint: mean survival time, dose: 200.0 mg/kg/injection, schedule: Q04DX003 (ip), vehicle: saline with Tween-80
[3] = endpoint: mean survival time, dose: 400.0 mg/kg/injection, schedule: Q04DX003 (ip), vehicle: saline with Tween-80
[4] = endpoint: mean survival time, dose: 100.0 mg/kg/injection, schedule: Q01DX009 (ip), vehicle: saline with Tween-80
[5] = endpoint: mean survival time, dose: 200.0 mg/kg/injection, schedule: Q01DX009 (ip), vehicle: saline with Tween-80
[6] = endpoint: mean survival time, dose: 400.0 mg/kg/injection, schedule: Q01DX009 (ip), vehicle: saline with Tween-80
[7] = endpoint: mean survival time, dose: 100.0 mg/kg/injection, schedule: Q04DX003 (ip), vehicle: saline
[8] = endpoint: mean survival time, dose: 100.0 mg/kg/injection, schedule: Q01DX001 (ip), vehicle: saline with Tween-80
[9] = endpoint: mean survival time, dose: 200.0 mg/kg/injection, schedule: Q01DX001 (ip), vehicle: saline with Tween-80
[10] = endpoint: mean survival time, dose: 400.0 mg/kg/injection, schedule: Q01DX001 (ip), vehicle: saline with Tween-80

Measured: T/C

CNC1=C(C)C(=O)C2=C(C1=O)C(COC(N)=O)C1(O)C3C(CN21)N3C (stereo unspecified)
inactive: endpoint: mean survival time, dose: 1.5 mg/kg/injection, schedule: Q01DX001 (ip), vehicle: water 98 % of control | endpoint: mean survival time, dose: 3.0 mg/kg/injection, schedule: Q01DX001 (ip), vehicle: water 100 % of control | endpoint: mean survival time, dose: 6.0 mg/kg/injection, schedule: Q01DX001 (ip), vehicle: water 100 % of control | endpoint: mean survival time, dose: 12.0 mg/kg/injection, schedule: Q01DX001 (ip), vehicle: water 100 % of control | endpoint: mean survival time, dose: 24.0 mg/kg/injection, schedule: Q01DX001 (ip), vehicle: water 98 % of control | endpoint: mean survival time, dose: 48.0 mg/kg/injection, schedule: Q01DX001 (ip), vehicle: water 115 % of control | endpoint: mean survival time, dose: 96.0 mg/kg/injection, schedule: Q01DX001 (ip), vehicle: water 108 % of control

CCNc1ncc2ccccc2c1-c1ccc(N2CCN(CCCl)CC2)cc1
inactive: endpoint: mean survival time, dose: 25.0 mg/kg/injection, schedule: Q04DX003 (ip), vehicle: saline + alcohol 111 % of control | endpoint: mean survival time, dose: 50.0 mg/kg/injection, schedule: Q04DX003 (ip), vehicle: saline + alcohol 102 % of control | endpoint: mean survival time, dose: 100.0 mg/kg/injection, schedule: Q04DX003 (ip), vehicle: saline + alcohol 102 % of control | endpoint: mean survival time, dose: 200.0 mg/kg/injection, schedule: Q04DX003 (ip), vehicle: saline + alcohol 111 % of control

Cc1nc2c(N)cc(Cl)cc2[nH]1
inactive: endpoint: median survival time, dose: 25.0 mg/kg/injection, schedule: Q01DX005 (ip), vehicle: saline with Tween-80 101 % of control | endpoint: median survival time, dose: 50.0 mg/kg/injection, schedule: Q01DX005 (ip), vehicle: saline with Tween-80 101 % of control | endpoint: median survival time, dose: 100.0 mg/kg/injection, schedule: Q01DX005 (ip), vehicle: saline with Tween-80 103 % of control

CS(=O)(=O)c1ccc(NN)c([N+](=O)[O-])c1
inactive: [1] 98 % of control | [2] 98 % of control | [3] 102 % of control

O=C1c2ccccc2C(=O)c2ccccc21
inactive: [4] 93 % of control | [1] 87 % of control | [5] 100 % of control | [2] 93 % of control | [6] 94 % of control | [3] 88 % of control

CCOC(=O)c1[nH]cnc1/N=N/N(C)C
inactive: endpoint: mean survival time, dose: 16.5 mg/kg/injection, schedule: Q01DX009 (ip), vehicle: saline with Tween-80 120 % of control | [4] 109 % of control | [1] 105 % of control

COc1cc(/C=C/C(C)=N/Nc2ccc([N+](=O)[O-])cc2[N+](=O)[O-])ccc1O
inactive: [1] 95 % of control | [2] 94 % of control | [3] 95 % of control

CCCCOC(=O)CNC(=O)c1ccc(C)c(OCc2ccccc2)c1[N+](=O)[O-]
inactive: endpoint: mean survival time, dose: 75.0 mg/kg/injection, schedule: Q01DX001 (ip), vehicle: steriod suspending solution 100 % of control | endpoint: mean survival time, dose: 150.0 mg/kg/injection, schedule: Q01DX001 (ip), vehicle: steriod suspending solution 100 % of control | endpoint: mean survival time, dose: 300.0 mg/kg/injection, schedule: Q01DX001 (ip), vehicle: steriod suspending solution 100 % of control

O=C1C=C(N2CC2)C(=O)C=C1N1CC1
inactive: endpoint: mean survival time, dose: 0.12 mg/kg/injection, schedule: Q01DX Z (ip), vehicle: saline 120 % of control and 103 % of control | endpoint: mean survival time, dose: 0.25 mg/kg/injection, schedule: Q01DX Z (ip), vehicle: saline 119 % of control | endpoint: mean survival time, dose: 0.5 mg/kg/injection, schedule: Q01DX Z (ip), vehicle: saline 120 % of control | endpoint: mean survival time, dose: 1.0 mg/kg/injection, schedule: Q01DX Z (ip), vehicle: saline 91 % of control

CCOP(=O)(OCC)C(C#N)Cc1ccccc1OC (stereo unspecified)
inactive: [7] 98 % of control | endpoint: mean survival time, dose: 200.0 mg/kg/injection, schedule: Q04DX003 (ip), vehicle: saline 101 % of control

CC(=O)c1cccc(OCc2ccccc2)c1
inactive: endpoint: mean survival time, dose: 100.0 mg/kg/injection, schedule: Q04DX003 (ip), vehicle: other 96 % of control | endpoint: mean survival time, dose: 200.0 mg/kg/injection, schedule: Q04DX003 (ip), vehicle: other 96 % of control

CCOC(=O)/C(C#N)=C1/C=CC=CN1
inactive: [4] 98 % of control | [1] 102 % of control | [5] 102 % of control | [2] 110 % of control | [6] 100 % of control | [3] 103 % of control

C(COCCOCC1CO1)OCCOCC1CO1 (stereo unspecified)
inactive: endpoint: mean survival time, dose: 12.5 mg/kg/injection, schedule: Q01DX009 (ip), vehicle: saline with Tween-80 104 % of control | endpoint: mean survival time, dose: 25.0 mg/kg/injection, schedule: Q01DX009 (ip), vehicle: saline with Tween-80 108 % of control | endpoint: mean survival time, dose: 50.0 mg/kg/injection, schedule: Q01DX009 (ip), vehicle: saline with Tween-80 104 % of control | [4] 106 % of control | [5] 104 % of control

O=C(O)C12CC3CC(CC(C3)C1)C2
inactive: [1] 103 % of control | [2] 105 % of control | [3] 102 % of control

O=C(O)CCC1NCCCO1 (stereo unspecified)
inactive: endpoint: mean survival time, dose: 100.0 mg/kg/injection, schedule: Q01DX009 (ip), vehicle: saline 101 % of control | [7] 88 % of control | endpoint: mean survival time, dose: 200.0 mg/kg/injection, schedule: Q01DX009 (ip), vehicle: saline 95 % of control | endpoint: mean survival time, dose: 400.0 mg/kg/injection, schedule: Q01DX009 (ip), vehicle: saline 95 % of control | endpoint: mean survival time, dose: 400.0 mg/kg/injection, schedule: Q04DX003 (ip), vehicle: saline 95 % of control

CC1=C(/C=C/C(C)=C/C=C/C(C)=C/CO)C(C)(C)CCC1
inactive: endpoint: mean survival time, dose: 150.0 mg/kg/injection, schedule: Q01DX001 (ip), vehicle: alkali diluted with saline 102 % of control | endpoint: mean survival time, dose: 150.0 mg/kg/injection, schedule: Q01DX001 (ip), vehicle: distilled water + alcohol 112 % of control | endpoint: mean survival time, dose: 150.0 mg/kg/injection, schedule: Q01DX001 (ip), vehicle: other 112 % of control | endpoint: mean survival time, dose: 150.0 mg/kg/injection, schedule: Q01DX001 (ip), vehicle: saline 102 % of control | endpoint: mean survival time, dose: 150.0 mg/kg/injection, schedule: Q11HX001 (ip), vehicle: saline 102 % of control | endpoint: mean survival time, dose: 300.0 mg/kg/injection, schedule: Q01DX001 (ip), vehicle: alkali diluted with saline 99 % of control and 100 % of control | endpoint: mean survival time, dose: 300.0 mg/kg/injection, schedule: Q01DX001 (ip), vehicle: distilled water + alcohol 108 % of control | endpoint: mean survival time, dose: 300.0 mg/kg/injection, schedule: Q01DX001 (ip), vehicle: other 108 % of control | endpoint: mean survival time, dose: 300.0 mg/kg/injection, schedule: Q01DX001 (ip), vehicle: saline 103 % of control | endpoint: mean survival time, dose: 300.0 mg/kg/injection, schedule: Q11HX001 (ip), vehicle: saline 103 % of control

Nc1nc2nc(CBr)c(CBr)nc2c(=O)[nH]1
inactive: [5] 101 % of control

O=C(Nc1ccc(Br)cc1)c1ccccc1
inactive: [4] 107 % of control | [1] 102 % of control | [5] 94 % of control | [2] 102 % of control | [6] 91 % of control | [3] 100 % of control

COc1ccc(N=C=S)cc1N=C=S
inactive: endpoint: mean survival time, dose: 6.25 mg/kg/injection, schedule: Q01DX001 (ip), vehicle: saline with Tween-80 98 % of control | endpoint: mean survival time, dose: 12.5 mg/kg/injection, schedule: Q01DX001 (ip), vehicle: saline with Tween-80 97 % of control | endpoint: mean survival time, dose: 25.0 mg/kg/injection, schedule: Q01DX001 (ip), vehicle: saline with Tween-80 101 % of control

CCOC(=O)Cc1cnc(SC)nc1Nc1ccc(C)cc1
inactive: [8] 97 % of control | [9] 108 % of control | [10] 106 % of control

O=[N+]([O-])c1c(Cl)cc(Cl)c(-c2c(Cl)cc(Cl)c([N+](=O)[O-])c2Cl)c1Cl
inactive: endpoint: mean survival time, dose: 12.5 mg/kg/injection, schedule: Q01DX009 (ip), vehicle: water 97 % of control | endpoint: mean survival time, dose: 25.0 mg/kg/injection, schedule: Q01DX009 (ip), vehicle: water 100 % of control | endpoint: mean survival time, dose: 50.0 mg/kg/injection, schedule: Q01DX009 (ip), vehicle: water 94 % of control | endpoint: mean survival time, dose: 100.0 mg/kg/injection, schedule: Q01DX009 (ip), vehicle: water 95 % of control | endpoint: mean survival time, dose: 200.0 mg/kg/injection, schedule: Q01DX009 (ip), vehicle: water 94 % of control

N#Cc1nc(N)nc2c1ncn2-c1ccc(C(N)=O)cc1
inactive: [8] 96 % of control | [9] 101 % of control | [10] 90 % of control

CC1(C)CC(=O)C2OC2(C)C1 (stereo unspecified)
inactive: [4] 100 % of control | [1] 95 % of control | [5] 97 % of control | [2] 103 % of control | [6] 96 % of control | [3] 97 % of control

CCCCNS(=O)(=O)c1ccccc1
inactive: [1] 97 % of control | [2] 96 % of control

NCc1c(Cl)c(Cl)c(Cl)c(CN)c1Cl
inactive: endpoint: mean survival time, dose: 50.0 mg/kg/injection, schedule: Q04DX003 (ip), vehicle: saline with Tween-80 100 % of control | [1] 100 % of control | [2] 98 % of control
